Measured values as given in patent US20240199647A1, “ANTI-VIRAL COMPOUNDS” (Aligos Therapeutics, Inc., priority 2022, published 2024).
Like-named read-outs stand apart in the source and are kept apart here.

What was measured:
[1] = Cytotoxicity in HeLa cells without addition of OC43 virus (in parallel); conditions: human, HeLa cells, without OC43 virus
[2] = system: SARS-CoV-2 B.1.1.7 lineage; experiment: microbe, parasite or virus in culture; format: cell-based; conditions: Severe acute respiratory syndrome coronavirus 2, Table C, SARS-CoV-2 B.1.1.7 in A549-dual_ACE2_TMPRSS2 cells, read-out: A549-dual_ACE2_TMPRSS2 (EC50)
SARS-Cov-2 3CLpro = SARS-Cov-2 3CLpro (Severe acute respiratory syndrome coronavirus 2, UniProt P0DTD1); experiment: biochemical; conditions: Table A, class symbols, read-out: SARS-Cov-2 (IC50)
[3] = system: human beta-coronavirus OC43; experiment: OC43 Coronavirus Assay in HeLa cells (antiviral, cytopathic effect, cell-titer-glo); format: cell-based; conditions: Betacoronavirus 1, OC43, HeLa, Table B; OC43 coronavirus in HeLa cells, class symbols; read-out: EC50
in vitro = conditions: human

Compound | CC50 at 6 days [1] [µM] | EC50 ([2]; class symbols) [µM] | IC50 (SARS-Cov-2 3CLpro) [µM] | EC50 [3] [µM] | CC50 (in vitro) [µM] | EC50 ([2]; cells given as a bound) [µM]
C[C@H](NC(=O)C(F)(F)F)C(=O)N(C)[C@@H](CC1CC1)C(=O)N1C[C@@]2(C[C@H]1C#N)Oc1cc(Cl)cnc1NC2=O [Compound 147] | > 10 | < 0.1 | < 0.02 | < 0.1 | > 1 | –
COc1ccc(C[C@@H](NC(=O)C(F)(F)F)C(=O)N(C)[C@@H](CC2CC2)C(=O)N2C[C@@]3(C[C@H]2C#N)Oc2cccnc2NC3=O)cc1 [Compound 149] | > 10 | < 0.1 | < 0.02 | < 0.1 | > 1 | –
CN(C(=O)[C@H](CC(C)(C)C)n1cc(C2CC2)nn1)[C@@H](CC1CC1)C(=O)N1C[C@@]2(C[C@H]1C#N)Oc1cc(F)cc(F)c1NC2=O [Compound 150] | > 10 | < 0.1 | < 0.02 | < 0.1 | > 1 | –
C[C@H](NC(=O)C(F)(F)F)C(=O)N(C)[C@H](C(=O)N1C[C@@]2(C[C@H]1C#N)Oc1cc(F)cc(F)c1NC2=O)[C@@H](C)OC(C)(C)C [Compound 154] | > 10 | – | 0.2 to 2 | 1 to 10 | > 1 | > 1
C[C@@H](C(=O)N(C)[C@@H](CC1CC1)C(=O)N1C[C@@]2(C[C@H]1C#N)Oc1cccnc1NC2=O)n1cc(C2CC2)nn1 [Compound 155] | > 10 | 0.1 to 1 | 0.02 to 0.2 | 0.1 to 1 | > 1 | –
CN(C(=O)[C@@H](COC(C)(C)C)NC(=O)C(F)(F)F)[C@@H](CC1CC1)C(=O)N1C[C@@]2(C[C@H]1C#N)Oc1cccnc1NC2=O [Compound 156] | > 10 | 0.1 to 1 | < 0.02 | < 0.1 | > 1 | –
CN(C(=O)[C@H](CC1CC1)n1cc(C(F)(F)F)nn1)[C@@H](CC1CC1)C(=O)N1C[C@@]2(C[C@H]1C#N)Oc1cc(F)cc(F)c1NC2=O [Compound 157] | > 10 | < 0.1 | < 0.02 | < 0.1 | > 1 | –
CN(C(=O)[C@H](COC(C)(C)C)NC(=O)C(F)(F)F)[C@@H](CC1CC1)C(=O)N1C[C@@]2(C[C@H]1C#N)Oc1cc(F)cc(F)c1NC2=O [Compound 158] | > 10 | < 0.1 | < 0.02 | < 0.1 | > 1 | –
C[C@@H](OC(C)(C)C)[C@H](NC(=O)C(F)(F)F)C(=O)N(C)[C@@H](CC1CC1)C(=O)N1C[C@@]2(C[C@H]1C#N)Oc1cc(F)cc(F)c1NC2=O [Compound 159] | > 10 | < 0.1 | < 0.02 | 0.1 to 1 | > 1 | –
C[C@H](NC(=O)C(F)(F)F)C(=O)N(C)[C@@H](CC1CC1)C(=O)N1C[C@@]2(C[C@H]1C#N)Oc1ccccc1NC2=O [Compound 160] | > 10 | < 0.1 | < 0.02 | < 0.1 | > 1 | –
C[C@H](NC(=O)C(F)(F)F)C(=O)N(C)[C@@H](CC1CC1)C(=O)N1C[C@@]2(C[C@H]1C#N)Oc1ccccc1CNC2=O [Compound 163] | > 10 | 0.1 to 1 | < 0.02 | < 0.1 | > 1 | –
CN(C(=O)[C@H](CC1CC1)NC(=O)C(F)(F)F)[C@@H](CC(C)(C)C)C(=O)N1C[C@@]2(C[C@H]1C#N)Oc1ccccc1CNC2=O [Compound 164] | > 10 | < 0.1 | < 0.02 | < 0.1 | > 1 | –
C[C@H](NC(=O)C(F)(F)F)C(=O)N(C)[C@@H](CC1CCC1)C(=O)N1C[C@@]2(C[C@H]1C#N)Oc1cccnc1NC2=O [Compound 165] | > 10 | < 0.1 | < 0.02 | < 0.1 | > 1 | –
C[C@H](NC(=O)C(F)(F)F)C(=O)N(C)[C@@H](CC(C)(C)C)C(=O)N1C[C@@]2(C[C@H]1C#N)Oc1cccnc1NC2=O [Compound 166] | > 10 | 0.1 to 1 | < 0.02 | < 0.1 | > 1 | –
CN(C(=O)[C@H](CC1CC1)NC(=O)C(F)(F)F)[C@@H](CC1CC1)C(=O)N1C[C@@]2(C[C@H]1C#N)Oc1ccc(F)cc1CNC2=O [Compound 167] | > 10 | 0.1 to 1 | < 0.02 | < 0.1 | > 1 | –
CN(C(=O)[C@H](CC1CC1)NC(=O)C(F)(F)F)[C@@H](CC1CC1)C(=O)N1C[C@@]2(C[C@H]1C#N)Oc1c(F)cccc1CNC2=O [Compound 168] | > 10 | < 0.1 | < 0.02 | < 0.1 | > 1 | –
C[C@H](NC(=O)C1(F)CC1)C(=O)N(C)[C@@H](CC1CC1)C(=O)N1C[C@@]2(C[C@H]1C#N)Oc1cccnc1NC2=O [Compound 169] | > 10 | 0.1 to 1 | < 0.02 | < 0.1 | > 1 | –
C[C@H](NC(=O)C(F)(F)C(F)(F)F)C(=O)N(C)[C@@H](CC1CC1)C(=O)N1C[C@@]2(C[C@H]1C#N)Oc1cccnc1NC2=O [Compound 170] | > 10 | < 0.1 | < 0.02 | < 0.1 | > 1 | –
CN(C(=O)c1cnc(C(F)(F)F)[nH]1)[C@@H](CC1CC1)C(=O)N1C[C@@]2(C[C@H]1C#N)Oc1cc(F)cc(F)c1NC2=O [Compound 171] | > 10 | – | 0.02 to 0.2 | 1 to 10 | > 1 | > 1
CN(C(=O)[C@@H](CC1CC1)NC(=O)C(F)(F)F)[C@@H](CC1CC1)C(=O)N1C[C@@]2(C[C@H]1C#N)Oc1cccnc1NC2=O [Compound 172] | > 10 | 0.1 to 1 | < 0.02 | 0.1 to 1 | > 1 | –
CN(C(=O)C1(NC(=O)C(F)(F)F)CCCCC1)[C@@H](CC1CC1)C(=O)N1C[C@@]2(C[C@H]1C#N)Oc1cccnc1NC2=O [Compound 173] | > 10 | – | 0.2 to 2 | 1 to 10 | > 1 | > 1
C[C@H](NC(=O)C(F)(F)Cl)C(=O)N(C)[C@@H](CC1CC1)C(=O)N1C[C@@]2(CC1C#N)Oc1cccnc1NC2=O (some centres unmarked) [Compound 174] | > 10 | < 0.1 | < 0.02 | < 0.1 | > 1 | –
CN(C(=O)[C@H](CC1CC1)NS(=O)(=O)C1CC1)[C@@H](CC1CC1)C(=O)N1C[C@@]2(C[C@H]1C#N)Oc1ccccc1CNC2=O [Compound 175] | > 10 | 0.1 to 1 | < 0.02 | < 0.1 | > 1 | –
CN(C(=O)[C@H](CC1CC1)NC(=O)C1(F)CC1)[C@@H](CC1CC1)C(=O)N1C[C@@]2(CC1C#N)Oc1ccccc1CNC2=O (some centres unmarked) [Compound 176] | > 10 | < 0.1 | < 0.02 | < 0.1 | > 1 | –
CC(C)[C@H](NC(=O)C(F)(F)F)C(=O)N(C)[C@@H](CC1CC1)C(=O)N1C[C@@]2(C[C@H]1C#N)Oc1cccnc1NC2=O [Compound 177] | > 10 | 0.1 to 1 | < 0.02 | 0.1 to 1 | > 1 | –
